What all share (type): cell-based
In assay [1] the test system is HTT mRNA. Put plainly: Splicing RT-qPCR assay (THP), Table 2A. The settings on record: Table 2A, THP. For orientation: Quantitative PCR measures a nucleic acid by following its amplification.
Assay [2] relates to MYB mRNA. The assay can be described thus: Splicing RT-qPCR assay, canonical (CJ) and alternative (AJ) junction mRNA, K562 cells. The settings on record: Homo sapiens, K562.3 cells, 24 hours. In outline: (§1)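 RT-qPCR read-out: CJ and AJ isoforms quantified by ΔCt against GAPDH or GUSB, normalized to DMSO, and converted to % response. Windows in 96-well format (50,000 cells/well) were 4.0 ΔCt for MYB-CJ and 3 for MYB-AJ, and 3.5 ΔCt for HTT-CJ and 9 for HTT-AJ. Cells were dosed for 24 h, top 10 uM.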

In assay [3] the test system is HTT mRNA. Described as above. As to conditions: Homo sapiens, K562.3 cells, 24 hours. In outline:
as §1

Assay [4] deals with MYB mRNA. Put plainly: Splicing RT-qPCR assay (THP), Table 2A. As to conditions: Table 2A, THP.

By AC50 is commonly meant the concentration giving half of the maximal activity seen. By IC50 is commonly meant the concentration that inhibits the measured activity by half. As for `Cc1cn2cc(NC(=O)c3ccc(N4C[C@@H](C)N[C@@H](C)C4)c4c3nnn4C)cc(F)c2n1` [Compound 635], the AC50 in assay [1] (HTT alternative junction (AJ) mRNA, read-out: HTT AJ (AC50, increase in alternative junction mRNA)) was 1 to 10 µM; in assay [2] (read-out: MYB AJ (AC50, increase in AJ mRNA)), 0.1 to 1 µM; in assay [3] (read-out: HTT AJ (AC50, increase in AJ mRNA)) it was 1 to 10 µM; in assay [4] (MYB alternative junction (AJ) mRNA, read-out: MYB AJ (AC50, increase in alternative junction mRNA)), 0.1 to 1 µM. The IC50 in assay [1] (HTT canonical junction (CJ) mRNA, read-out: HTT CJ (IC50, decrease in canonical junction mRNA)) lay in the range of 1 to 10 µM; in assay [2] (read-out: MYB CJ (IC50, decrease in CJ mRNA)), 0.1 to 1 µM; in assay [3] (read-out: HTT CJ (IC50, decrease in CJ mRNA)) it was 1 to 10 µM; in assay [4] (MYB canonical junction (CJ) mRNA, read-out: MYB CJ (IC50, decrease in canonical junction mRNA)), 0.1 to 1 µM.

The record behind these values is patent publication US20260285853A1, “COMPOUNDS AND METHODS FOR MODULATING SPLICING” (REMIX THERAPEUTICS INC., priority 2023, published 2026).
